Measured values as given in patent US10294202B2, “Pyrrolidinones as herbicides” (FMC Corporation, priority 2013, dated 2019).

What was measured:
[1] = test system: crabgrass, large; assay: Test C pre-/postemergence herbicide test; assay type: in vivo, Digitaria sanguinalis
Summary of the method: (§1)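 Pre- and postemergence greenhouse screen. Preemergence treatment went onto freshly planted seeds in loam–sand soil; postemergence treatment went onto plants 2 to 18 cm tall at the 1- to 4-leaf stage in sphagnum peat/vermiculite medium. Scoring at 13 to 15 days used a 0–100 control scale.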

[2] = test system: pigweed; assay: Test A pre-/postemergence herbicide test; assay type: in vivo, Amaranthus retroflexus
Summary of the method: (§2)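 Visual injury ratings, 0 = no effect, 100 = complete control, taken ~10 days after treatment against untreated greenhouse controls. Preemergence: directed soil spray onto seeded loam/sand pots. Postemergence: spray onto plants at one- to two-leaf stage, 2–10 cm tall.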

[3] = test system: oat, wild; assay: Test C pre-/postemergence herbicide test; assay type: in vivo, Avena fatua
Summary of the method: as §1

[4] = test system: lambsquarters; assay: Test C pre-/postemergence herbicide test; assay type: in vivo, Chenopodium album
Summary of the method: as §1

[5] = test system: velvetleaf; assay: Test C pre-/postemergence herbicide test; assay type: in vivo, Abutilon theophrasti
Summary of the method: as §1

[6] = test system: foxtail, giant; assay: Test C pre-/postemergence herbicide test; assay type: in vivo, Setaria faberii
Summary of the method: as §1

[7] = test system: morningglory; assay: Test C pre-/postemergence herbicide test; assay type: in vivo, Ipomoea coccinea
Summary of the method: as §1

[8] = test system: giant foxtail; assay: Test A pre-/postemergence herbicide test; assay type: in vivo, Setaria faberii
Summary of the method: as §2

[9] = test system: barnyardgrass; assay: Test A pre-/postemergence herbicide test; assay type: in vivo, Echinochloa crus-galli
Summary of the method: as §2

[10] = test system: galium; assay: Test C pre-/postemergence herbicide test; assay type: in vivo, Galium aparine
Summary of the method: as §1

[11] = Preemergence, 31 g ai/ha, scale 0 to 100 (0 no effect, 100 complete control)
[12] = Preemergence, 62 g ai/ha, scale 0 to 100
[13] = Preemergence, 125 g ai/ha, scale 0 to 100 (0 no effect, 100 complete control)
[14] = Preemergence, 250 g ai/ha, scale 0 to 100 (0 no effect, 100 complete control)
[15] = Postemergence, 125 g ai/ha, 0 to 100 scale, 0 no effect, 100 complete control
[16] = Postemergence, 500 g ai/ha, 0 to 100 scale (0 no effect, 100 complete control)
[17] = Preemergence, 125 g ai/ha, visual rating on 0 to 100 scale (0 no effect, 100 complete control)
[18] = preemergence, 500 g ai/ha, 0 to 100 scale
[19] = Postemergence, 31 g ai/ha, scale 0 (no effect) to 100 (complete control)
[20] = Postemergence, 62 g ai/ha, scale 0 to 100 (0 no effect, 100 complete control)
[21] = Postemergence, 125 g ai/ha, scale 0 to 100 (0 no effect, 100 complete control)
[22] = Postemergence, 250 g ai/ha, scale 0 to 100 (0 no effect, 100 complete control)
[23] = Postemergence, 1000 g ai/ha, 0 to 100 scale (0 no effect, 100 complete control)
[24] = Preemergence, 1000 g ai/ha, visual rating on 0 to 100 scale (0 no effect, 100 complete control), approx. 10 days

## O=C1NCC(c2ccc(F)c(Cl)c2)C1C(=O)Nc1cccc(F)c1F (centres unmarked) [Compound 59]
[1]; [11]
  Crabgrass, Large plant response rating: 85
[1]; [12]
  Plant response rating, Crabgrass, Large: 85
[1]; [13]
  Plant response rating, Crabgrass, Large: 90
[1]; [14]
  Plant response rating, Crabgrass, Large: 100
[2]; [15]
  Plant response rating, Pigweed: 0
[2]; [16]
  Plant response rating, Pigweed: 40
[2]; [17]
  Pigweed plant response rating: 0
[2]; [18]
  Plant response rating, Pigweed: 0
[3]; [12]
  Plant response rating, Oat, Wild: 0
[3]; [13]
  Plant response rating, Oat, Wild: 0
[4]; [12]
  Plant response rating, Lambsquarters: 0
[4]; [13]
  Plant response rating, Lambsquarters: 0
[5]; [12]
  Plant response rating, Velvetleaf: 0
[5]; [13]
  Plant response rating, Velvetleaf: 0
[6]; [11]
  Foxtail, Giant plant response rating: 50
[6]; [12]
  Plant response rating, Foxtail, Giant: 85
[6]; [13]
  Plant response rating, Foxtail, Giant: 85
[6]; [14]
  Plant response rating, Foxtail, Giant: 90
[7]; [12]
  Plant response rating, Morningglory: 0
[7]; [13]
  Plant response rating, Morningglory: 15
[8]; [15]
  Plant response rating, Foxtail, Giant: 80
[8]; [16]
  Plant response rating, Foxtail, Giant: 80
[8]; [17]
  Foxtail, Giant plant response rating: 80
[8]; [18]
  Plant response rating, Foxtail, Giant: 90
[9]; [15]
  Plant response rating, Barnyardgrass: 70
[9]; [16]
  Plant response rating, Barnyardgrass: 90
[9]; [17]
  Barnyardgrass plant response rating: 80
[9]; preemergence, 500 g ai/ha, 0 to 100 scale (0 no effect, 100 complete control)
  Plant response rating, Barnyardgrass: 90
[10]; [11]
  Galium plant response rating: 0
[10]; [12]
  Plant response rating, Galium: 5
[10]; [13]
  Plant response rating, Galium: 30
[10]; [14]
  Plant response rating, Galium: 85

## O=C1NCC(c2cc(F)c(F)c(F)c2)C1C(=O)Nc1ccccc1F (racemic) [Compound 34]
[1]; [19]
  Plant response rating, Crabgrass, Large: 0
[1]; [20]
  Plant response rating, Crabgrass, Large: 30
[1]; [21]
  Plant response rating, Crabgrass, Large: 40
[1]; [22]
  Plant response rating, Crabgrass, Large: 60
[1]; [11]
  Crabgrass, Large plant response rating: 95
[1]; [12]
  Plant response rating, Crabgrass, Large: 98
[1]; [13]
  Plant response rating, Crabgrass, Large: 100
[1]; [14]
  Plant response rating, Crabgrass, Large: 100
[2]; [23]
  Plant response rating, Pigweed: 0
[2]; [24]
  Plant response rating, Pigweed: 0
[3]; [19]
  Plant response rating, Oat, Wild: 0
[3]; [20]
  Plant response rating, Oat, Wild: 0
[3]; [21]
  Plant response rating, Oat, Wild: 0
[3]; [22]
  Plant response rating, Oat, Wild: 0
[3]; [12]
  Plant response rating, Oat, Wild: 0
[3]; [13]
  Plant response rating, Oat, Wild: 60
[4]; [19]
  Plant response rating, Lambsquarters: 0
[4]; [20]
  Plant response rating, Lambsquarters: 0
[4]; [21]
  Plant response rating, Lambsquarters: 10
[4]; [22]
  Plant response rating, Lambsquarters: 55
[4]; [12]
  Plant response rating, Lambsquarters: 40
[4]; [13]
  Plant response rating, Lambsquarters: 80
[5]; [19]
  Plant response rating, Velvetleaf: 5
[5]; [20]
  Plant response rating, Velvetleaf: 5
[5]; [21]
  Plant response rating, Velvetleaf: 5
[5]; [22]
  Plant response rating, Velvetleaf: 5
[5]; [12]
  Plant response rating, Velvetleaf: 0
[5]; [13]
  Plant response rating, Velvetleaf: 0
[6]; [19]
  Plant response rating, Foxtail, Giant: 0
[6]; [20]
  Plant response rating, Foxtail, Giant: 5
[6]; [21]
  Plant response rating, Foxtail, Giant: 5
[6]; [22]
  Plant response rating, Foxtail, Giant: 35
[6]; [11]
  Foxtail, Giant plant response rating: 90
[6]; [12]
  Plant response rating, Foxtail, Giant: 95
[6]; [13]
  Plant response rating, Foxtail, Giant: 98
[6]; [14]
  Plant response rating, Foxtail, Giant: 98
[7]; [19]
  Plant response rating, Morningglory: 0
[7]; [20]
  Plant response rating, Morningglory: 5
[7]; [21]
  Plant response rating, Morningglory: 5
[7]; [22]
  Plant response rating, Morningglory: 10
[7]; [12]
  Plant response rating, Morningglory: 0
[7]; [13]
  Plant response rating, Morningglory: 5
[8]; [23]
  Plant response rating, Foxtail, Giant: 90
[8]; [24]
  Plant response rating, Foxtail, Giant: 90
[9]; [23]
  Plant response rating, Barnyardgrass: 90
[9]; [24]
  Plant response rating, Barnyardgrass: 90
[10]; [19]
  Plant response rating, Galium: 0
[10]; [20]
  Plant response rating, Galium: 0
[10]; [21]
  Plant response rating, Galium: 0
[10]; [22]
  Plant response rating, Galium: 10
[10]; [11]
  Galium plant response rating: 0
[10]; [12]
  Plant response rating, Galium: 0
[10]; [13]
  Plant response rating, Galium: 5
[10]; [14]
  Plant response rating, Galium: 60
